Source: patent US20210147811A1, “METHODS FOR IN VITRO EXPANSION OF ADULT TISSUE STEM CELLS” (CEDARS-SINAI MEDICAL CENTER, priority 2018, published 2021)

Experiments:
Assay type in all cases: cell-based
[1] = tested on: murine pre-cultured distal total epithelial cells; assay: 3D organoid culture of murine distal total epithelial cells pre-cultured 24 hrs on collagen coated plates; conditions: pre-cultured on collagen coated plates for 24 hrs after isolation, +SB431542
Description: FIG. 4. Effect of pre-culturing—Day 3. Pre-culturing cells on collagen coated plates for 24 hrs after initial isolation increases the rate of organoid formation, with organoids being visible as early as day 3 in culture.
FIG. 5. Effect of pre-culturing—Day 8. Addition of Pifithrin α causes an increase in organoids size, while addition of ROCKi causes an increase in the colony forming efficiency. This effect is more pronounced when cells are pre-cultured for 24 hrs on collagen coated plates after initial isolation.
FIG. 14. Effect of inhibitors on murine pre-cultured distal total epithelial cells in (+SB431542). Addition Pifithrin alpha increases organoid size while addition of ROCKi increases the colony forming efficiency when murine distal total epithelial cells (isolated from the lung without trachea) are pre-cultured on collagen coated plates for 24 hrs prior after initial isolation. The effect on size is more pronounced when cells are precultured for 24 hrs on collagen coated plates after initial isolation. The drop in CFE in the Pifithrin alpha+ROCKi group is likely due space and nutrient availability constraints due to the large number of organoids per well.
ROCKi increases the colony forming efficiency when murine distal total epithelial cells (isolated from the lung without trachea) are pre-cultured on collagen coated plates for 24 hrs prior after initial isolation. The effect on size is more pronounced when cells are precultured for 24 hrs on collagen coated plates after initial isolation. The drop in CFE in the Pifithrin alpha+ROCKi group is likely due space and nutrient availability constraints due to the large number of organoids per well. Addition of both ROCKi and Pifithrin alpha (in presence of SB431542) increases the colony forming efficiency of freshly isolated alveolar type II cells (regional stem cells which maintain the epithelium of the air sacs in the lung). The effect is synergistic for their combined use, similar to that seen for total distal epithelial cells in the previous figures.

[2] = tested on: freshly isolated club cells; assay: Organoid culture of lineage labelled murine club cells; conditions: GFP+ club cells, in presence of SB431542
Description: FIG. 17. Effect of ROCK and P53 inhibition on lineage labelled murine club cells. GFP^+ club cells were isolated from tamoxifen treated Scgb1a1-CreER/ROSARG mice. Addition of ROCKi (in presence of SB431542) increases the colony forming efficiency of freshly isolated club cells (regional stem cells which maintain certain cell types in the bronchiolar epithelium) whereas addition of Pifithrin alpha (in presence of SB431542) increases the size of Scgb1a1-derived organoids.
(§1) Distal progenitor cells were cultured as 3D organoids for 14 days in presence of Pifithrin-alpha, ROCKi and SB431542 followed by culture for 7 days in media without all three inhibitors. […] Addition of ROCKi (in presence of SB431542) increases the colony forming efficiency of freshly isolated club cells (regional stem cells which maintain certain cell types in the bronchiolar epithelium) whereas addition of Pifithrin alpha (in presence of SB431542) increases the size of Scgb1a1-derived organoids. Addition of both ROCKi (in presence of SB431542) increases the colony forming efficiency of freshly isolated murine proximal total epithelial cells (isolated from the murine trachea).

distal progenitor cells = assay: Differentiation potential of distal progenitors after 3D organoid culture with inhibitors; conditions: 14 days with Pifithrin-alpha, ROCKi and SB431542, then 7 days without inhibitors, PDPN and SPC staining
Procedure: FIG. 16. […] Distal progenitor cells were cultured as 3D organoids for 14 days in presence of Pifithrin-alpha, ROCKi and SB431542 followed by culture for 7 days in media without all three inhibitors. […] DAPI (blue) is a nuclear stain.
as §1

lung stem cells = assay: In vitro organoid assays of clonal expansion of lung stem cells; conditions: combination of p53 inhibitor with ROCK inhibitor (and TGFb inhibitors)
Description: Methods have been developed for expansion of stem cells using a combination of irradiated NIH-3T3 fibroblasts and a ROCK inhibitor (Y27632). […] Preliminary studies by the Inventors have shown that pharmacologic inhibition of p53 results in greater clonal expansion of lung stem cells compared to use of ROCK inhibitor Y27632 alone. Effects of combined treatment with Pifithrin-α and Y27632 are additive. Future studies will determine reversibility of Pifirthrin-α effects on stem cell expansion and differentiation. This includes: 1) validating that the observed increase in clonogenic potential of lung stem cells is the result of stem cell expansion, 2) application of the aforementioned pharmacologic intervention during in vitro stem cell expansion enhances their viability following cryopreservation, 3) that application of the aforementioned pharmacologic intervention during in vitro stem cell expansion enhances to functionally engraft into lung tissue following orthotopic lung transplantation, 4) that stem cells expanded under these conditions retain full capacity for differentiation into specialized lung epithelial cell types and 5) that established culture conditions can be used to expand human lung stem cells. […]

## Cc1ccc(C(=O)Cn2c3c(sc2=N)CCCC3)cc1 [Pifithrin α]
[1]
  organoid size: increase
[1]; listed as Pifithrin alpha
  organoid size: increases
[2]
  size of Scgb1a1-derived organoids: increases
Distal progenitor cells; listed as Pifithrin alpha
  differentiation potential: do not alter
Distal progenitor cells; listed as Pifithrin-alpha
  differentiation potential: did not alter
Lung stem cells
  effect of combined use on clonal expansion / clonogenic potential of lung stem cells: additive
